The values that follow are results of earlier work, collected in US9358210B2, “Sustained-release pellets containing tacrolimus as an active ingredient” (priority 2010, dated 2016).

On to `C=CC[C@@H]1/C=C(\C)C[C@H](C)C[C@H](OC)[C@H]2O[C@@](O)(C(=O)C(=O)N3CCCC[C@H]3C(=O)O[C@H](/C(C)=C/[C@@H]3CC[C@@H](O)[C@H](OC)C3)[C@H](C)[C@@H](O)CC1=O)[C@H](C)C[C@@H]2OC` [tacrolimus, 17-allyl-1,14-dihydroxy-12-[2-(4-hydroxy-3-methoxycyclohexyl)-1-methylvinyl]-23,25-dimethoxy-13,19,21,27-tetramethyl-11,28-dioxa-4-azatricyclo[22.3.1.0]octacos-18-ene-2,3,10,16-tetraone], for which the solubility in water was 1 to 2 µg/mL.
